According to BindingDB's records for patent US10807952 (Achillion Pharmaceuticals, Inc., 2020):

These compounds were tested against Complement factor D (Homo sapiens, UniProt P00746) (assay: Not found).
Description: Not found

Complement factor D, sequence (P00746 whole entry): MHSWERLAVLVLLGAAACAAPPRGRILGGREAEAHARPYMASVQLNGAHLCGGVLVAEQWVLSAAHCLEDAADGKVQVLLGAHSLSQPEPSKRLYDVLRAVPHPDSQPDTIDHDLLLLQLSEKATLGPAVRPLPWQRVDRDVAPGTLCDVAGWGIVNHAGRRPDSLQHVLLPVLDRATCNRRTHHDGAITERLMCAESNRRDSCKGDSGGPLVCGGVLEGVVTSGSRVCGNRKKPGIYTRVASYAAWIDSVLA

| SMILES | IC50 |
| --- | --- |
| NC(=O)c1nn(CC(=O)N2C[C@H](F)C[C@H]2C(=O)Nc2cccc(-c3ccc4[nH]cnc4c3Cl)c2F)c2ccc(Br)cc12 [US10807952, Cmp No. 4] | < 1000 nM |
| NC(=O)c1nn(CC(=O)N2C[C@H](F)C[C@H]2C(=O)Nc2cccc(-c3nc4cccc(Cl)c4[nH]3)c2F)c2ccccc12 [US10807952, Cmp No. 27] | < 1000 nM |

Second part, the compound after the results:

| IC50 | SMILES |
| --- | --- |
| < 1000 nM | NC(=O)c1cccc(CC(=O)N2C[C@H](F)C[C@H]2C(=O)Nc2cccc(-c3ccccc3Cl)c2F)n1 [US10807952, Cmp No. 38] |
| < 1000 nM | NC(=O)c1nn(CC(=O)N2C[C@H](F)C[C@H]2C(=O)Nc2cccc(Br)n2)c2cc(C(F)(F)F)sc12 [US10807952, Cmp No. 34] |
| < 1000 nM | CC(=O)c1nn(CC(=O)N2C[C@H](F)C[C@H]2C(=O)Nc2cccc(-c3ccc4[nH]cnc4c3Cl)c2F)c2cnccc12 [US10807952, Cmp No. 1] |
